Laboratory results taken from PubChem BioAssay AID248 (DTP/NCI, 2004).
“And” between values parts separate entries of the source, which are not always exact repeats. Equal entries are not always repeated. Toxic doses and inconclusive results are not listed. Peptide text beside a SMILES is read from it.

System: L1210 leukemia ip in BDF1 mice, survival T/C
Test: NCI In Vivo Anticancer Drug Screen. Data for tumor model L1210 Leukemia (intraperitoneal) in B6D2F1 (BDF1) mice
Details: endpoint: mean survival time, higher = longer survival
Procedure, shortened: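 Tumor was transplanted into mice, which were then dosed with test compound or vehicle alone. Survival was recorded for each group, and the treated figure was expressed relative to the control figure.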

[1] = dose: 100.0 mg/kg/injection, schedule: Q04DX003 (ip), vehicle: saline
[2] = dose: 200.0 mg/kg/injection, schedule: Q04DX003 (ip), vehicle: saline
[3] = dose: 25.0 mg/kg/injection, schedule: Q04DX003 (ip), vehicle: saline
[4] = dose: 50.0 mg/kg/injection, schedule: Q04DX003 (ip), vehicle: saline
[5] = dose: 100.0 mg/kg/injection, schedule: Q01DX001 (ip), vehicle: saline
[6] = dose: 200.0 mg/kg/injection, schedule: Q01DX001 (ip), vehicle: saline
[7] = dose: 400.0 mg/kg/injection, schedule: Q01DX001 (ip), vehicle: saline
[8] = dose: 50.0 mg/kg/injection, schedule: Q01DX001 (ip), vehicle: saline
[9] = dose: 100.0 mg/kg/injection, schedule: Q01DX001 (ip), vehicle: carboxymethylcellulose (CMC)
[10] = dose: 200.0 mg/kg/injection, schedule: Q01DX001 (ip), vehicle: carboxymethylcellulose (CMC)
[11] = dose: 300.0 mg/kg/injection, schedule: Q01DX001 (ip), vehicle: carboxymethylcellulose (CMC)
[12] = dose: 100.0 mg/kg/injection, schedule: Q01DX001 (ip), vehicle: Klucel (hydroxypropylcellulose) (HPC)
[13] = dose: 200.0 mg/kg/injection, schedule: Q01DX001 (ip), vehicle: Klucel (hydroxypropylcellulose) (HPC)
[14] = dose: 75.0 mg/kg/injection, schedule: Q01DX001 (ip), vehicle: carboxymethylcellulose (CMC)
[15] = dose: 150.0 mg/kg/injection, schedule: Q01DX001 (ip), vehicle: carboxymethylcellulose (CMC)
[16] = dose: 400.0 mg/kg/injection, schedule: Q01DX001 (ip), vehicle: carboxymethylcellulose (CMC)
[17] = dose: 100.0 mg/kg/injection, schedule: Q04DX002 (ip), vehicle: Klucel (hydroxypropylcellulose) (HPC)
[18] = dose: 200.0 mg/kg/injection, schedule: Q04DX002 (ip), vehicle: Klucel (hydroxypropylcellulose) (HPC)

CSc1nnc(-c2ccncc2)s1
T/C [1]: 104 % of control | T/C [2]: 107 % of control

CS(C)(=O)=C/C(=C\C(=O)c1ccccc1)c1ccccc1
T/C [3]: 100 % of control | T/C [4]: 103 % of control | T/C [1]: 97 % of control

C=CC1(C)CO1 (stereo not drawn)
T/C [1]: 93 % of control | T/C [2]: 112 % of control | T/C (dose: 400.0 mg/kg/injection, schedule: Q04DX003 (ip), vehicle: saline): 96 % of control

CC1=CC(c2c(O)cccc2O)C(=C(C)C)CC1 (stereo not drawn)
T/C (dose: 50.0 mg/kg/injection, schedule: Q01DX009 (ip), vehicle: Klucel (hydroxypropylcellulose) (HPC)): 95 % of control | T/C (dose: 100.0 mg/kg/injection, schedule: Q01DX009 (ip), vehicle: Klucel (hydroxypropylcellulose) (HPC)): 95 % of control | T/C (dose: 200.0 mg/kg/injection, schedule: Q01DX009 (ip), vehicle: Klucel (hydroxypropylcellulose) (HPC)): 95 % of control

O=C1CCCc2[nH]c(=O)ccc21
T/C [5]: 101 % of control | T/C [6]: 94 % of control | T/C [7]: 96 % of control

Nc1nc(CO)c(CCCCc2ccccc2)c(=O)[nH]1
T/C [8]: 101 % of control | T/C [5]: 101 % of control | T/C [6]: 98 % of control | T/C [7]: 101 % of control

O=C1CCCC[CH]1[Hg][Cl] (stereo not drawn)
T/C (dose: 1.25 mg/kg/injection, schedule: Q01DX001 (ip), vehicle: saline): 95 % of control | T/C (dose: 2.5 mg/kg/injection, schedule: Q01DX001 (ip), vehicle: saline): 96 % of control | T/C (dose: 5.0 mg/kg/injection, schedule: Q01DX001 (ip), vehicle: saline): 87 % of control

O=C(NC(=S)Nc1cc(C(F)(F)F)ccc1Cl)c1cccc([N+](=O)[O-])c1
T/C (dose: 100.0 mg/kg/injection, schedule: Q01DX001 (ip), vehicle: saline with Tween-80): 105 % of control | T/C (dose: 100.0 mg/kg/injection, schedule: Q01DX009 (ip), vehicle: saline with Tween-80): 96 % of control and 108 % of control | T/C (dose: 100.0 mg/kg/injection, schedule: Q04DX003 (ip), vehicle: saline with Tween-80): 99 % of control | T/C (dose: 200.0 mg/kg/injection, schedule: Q01DX001 (ip), vehicle: saline with Tween-80): 103 % of control | T/C (dose: 200.0 mg/kg/injection, schedule: Q01DX009 (ip), vehicle: saline with Tween-80): 92 % of control and 99 % of control | T/C (dose: 200.0 mg/kg/injection, schedule: Q04DX002 (ip), vehicle: saline with Tween-80): 98 % of control and 118 % of control | T/C (dose: 200.0 mg/kg/injection, schedule: Q04DX003 (ip), vehicle: saline with Tween-80): 103 % of control | T/C (dose: 400.0 mg/kg/injection, schedule: Q01DX001 (ip), vehicle: saline with Tween-80): 87 % of control | T/C (dose: 400.0 mg/kg/injection, schedule: Q01DX009 (ip), vehicle: saline with Tween-80): 92 % of control and 94 % of control | T/C (dose: 400.0 mg/kg/injection, schedule: Q04DX002 (ip), vehicle: saline with Tween-80): 95 % of control and 102 % of control | T/C (dose: 400.0 mg/kg/injection, schedule: Q04DX003 (ip), vehicle: saline with Tween-80): 89 % of control

COc1c2c(c3c(c1OC)c(=O)c1ccccc1n3C)OCO2
T/C (dose: 50.0 mg/kg/injection, schedule: Q01DX001 (ip), vehicle: carboxymethylcellulose (CMC)): 96 % of control | T/C [9]: 93 % of control | T/C [10]: 107 % of control | T/C [11]: 102 % of control

O=C1CCC(c2ccccc2)c2ccccc21 (stereo not drawn)
T/C [12]: 99 % of control | T/C [13]: 97 % of control | T/C (dose: 400.0 mg/kg/injection, schedule: Q01DX001 (ip), vehicle: Klucel (hydroxypropylcellulose) (HPC)): 100 % of control

COc1ccc2c(c1)CCc1cnoc1-2
T/C (dose: 100.0 mg/kg/injection, schedule: Q04DX003 (ip), vehicle: Klucel (hydroxypropylcellulose) (HPC)): 93 % of control | T/C (dose: 200.0 mg/kg/injection, schedule: Q04DX003 (ip), vehicle: Klucel (hydroxypropylcellulose) (HPC)): 95 % of control | T/C (dose: 400.0 mg/kg/injection, schedule: Q04DX003 (ip), vehicle: Klucel (hydroxypropylcellulose) (HPC)): 95 % of control

CCCC1=Cc2cc3c(cc2C1N(C)C)OCO3 (stereo not drawn)
T/C [12]: 97 % of control | T/C [13]: 97 % of control

CC/C=C(\C)C1(CCC)C(N)=NC(=O)N=C1N
T/C [14]: 93 % of control | T/C [15]: 91 % of control

CC1CCC(C(O)(C(=O)O)C2CCCCC2)CC1C (stereo not drawn)
T/C [14]: 97 % of control | T/C [15]: 105 % of control | T/C [11]: 100 % of control

C#CC(C)(C)NC(=O)NC(C)(C)C
T/C (dose: 100.0 mg/kg/injection, schedule: Q04DX002 (ip), vehicle: gum acacia): 112 % of control | T/C (dose: 200.0 mg/kg/injection, schedule: Q04DX002 (ip), vehicle: gum acacia): 91 % of control | T/C (dose: 400.0 mg/kg/injection, schedule: Q04DX002 (ip), vehicle: gum acacia): 102 % of control

O=NN(CCCl)C(=O)Nc1ccc(F)cc1
T/C (dose: 9.37 mg/kg/injection, schedule: Q01DX001 (ip), vehicle: carboxymethylcellulose (CMC)): 150 % of control | T/C (dose: 12.5 mg/kg/injection, schedule: Q01DX001 (ip), vehicle: carboxymethylcellulose (CMC)): 162 % of control | T/C (dose: 18.75 mg/kg/injection, schedule: Q01DX001 (ip), vehicle: carboxymethylcellulose (CMC)): 171 % of control | T/C (dose: 25.0 mg/kg/injection, schedule: Q01DX001 (ip), vehicle: carboxymethylcellulose (CMC)): 253 % of control | T/C (dose: 37.5 mg/kg/injection, schedule: Q01DX001 (ip), vehicle: carboxymethylcellulose (CMC)): 171 % of control

O=C(OC1COC(n2c(=O)oc3cc(Br)c(Cl)cc32)C(OC(=O)c2ccccc2)C1OC(=O)c1ccccc1)c1ccccc1 (stereo not drawn)
T/C [9]: 96 % of control | T/C [10]: 96 % of control | T/C [16]: 89 % of control

O=C(CCl)Nc1ccccc1
T/C [17]: 89 % of control | T/C [18]: 92 % of control

O/N=C1\CCc2ccccc21
T/C (dose: 50.0 mg/kg/injection, schedule: Q04DX002 (ip), vehicle: Klucel (hydroxypropylcellulose) (HPC)): 100 % of control | T/C [17]: 92 % of control | T/C [18]: 96 % of control

CN=NC(C)(C)OC(C)=O
T/C (dose: 12.5 mg/kg/injection, schedule: Q01DX001 (ip), vehicle: saline): 97 % of control | T/C (dose: 12.5 mg/kg/injection, schedule: Q01DX009 (ip), vehicle: saline): 101 % of control | T/C (dose: 12.5 mg/kg/injection, schedule: Q04DX003 (ip), vehicle: saline): 107 % of control | T/C (dose: 25.0 mg/kg/injection, schedule: Q01DX001 (ip), vehicle: saline): 96 % of control | T/C (dose: 25.0 mg/kg/injection, schedule: Q01DX009 (ip), vehicle: saline): 108 % of control | T/C [3]: 107 % of control | T/C [8]: 107 % of control | T/C [4]: 98 % of control

CCN1C=C/C(=C/c2cc3scc(-c4ccccc4)[n+]3c3ccccc23)c2ccccc21
T/C (dose: 0.01 mg/kg/injection, schedule: Q04DX003 (ip), vehicle: saline with Tween-80): 108 % of control | T/C (dose: 0.02 mg/kg/injection, schedule: Q04DX003 (ip), vehicle: saline with Tween-80): 98 % of control | T/C (dose: 0.04 mg/kg/injection, schedule: Q04DX003 (ip), vehicle: saline with Tween-80): 93 % of control

CC(NC(=O)C(CCC(=O)O)NC(=O)C(N)C(C)C)C(=O)NCC(=O)NC(C(=O)NC(CCC(=O)O)C(=O)NC(C)C(=O)NCC(=O)NCC(=O)O)C(C)C (stereo not drawn) (H-VEAGVEAGG-OH; configuration not given here)
T/C [8]: 93 % of control | T/C [5]: 95 % of control | T/C [6]: 91 % of control

CC(N)(CCCC(=O)O)C(=O)O (stereo not drawn)
T/C (dose: 176.0 mg/kg/injection, schedule: Q01DX001 (ip), vehicle: carboxymethylcellulose (CMC)): 95 % of control | T/C (dose: 264.0 mg/kg/injection, schedule: Q01DX001 (ip), vehicle: carboxymethylcellulose (CMC)): 100 % of control | T/C [16]: 95 % of control | T/C (dose: 600.0 mg/kg/injection, schedule: Q01DX001 (ip), vehicle: carboxymethylcellulose (CMC)): 98 % of control

O=c1c(Cl)c(C(Cl)(Cl)Cl)n(O)c2ccccc12
T/C (dose: 6.25 mg/kg/injection, schedule: Q01DX001 (ip), vehicle: Klucel (hydroxypropylcellulose) (HPC)): 104 % of control | T/C (dose: 12.5 mg/kg/injection, schedule: Q01DX001 (ip), vehicle: Klucel (hydroxypropylcellulose) (HPC)): 104 % of control | T/C (dose: 25.0 mg/kg/injection, schedule: Q01DX001 (ip), vehicle: Klucel (hydroxypropylcellulose) (HPC)): 98 % of control | T/C (dose: 50.0 mg/kg/injection, schedule: Q01DX001 (ip), vehicle: Klucel (hydroxypropylcellulose) (HPC)): 103 % of control | T/C [12]: 95 % of control
